The source made the active and inactive calls. The calls are words filed in the database; no cut-off is given here.

The subject of experiment [1] is cyclophilin A hCyp-18 (Homo sapiens). Briefly: Inhibitory activity against Human Cyclophilin hCyp-18 Peptidyl-prolyl isomerase by using the standard uncoupled PPIase (peptidyl-prolyl isomerases) assay at a concentration of 500 uM.
The test system is the same in experiment [2]. The experiment can be described thus: Inhibitory activity against Human Cyclophilin hCyp-18 Peptidyl-prolyl isomerase by using the standard uncoupled PPIase (peptidyl-prolyl isomerases) assay at a concentration of 500 uM;NI-no inhibition.
For experiment [3] the test system is unchanged. Briefly: Inhibitory activity against Human Cyclophilin hCyp-18 Peptidyl-prolyl isomerase by using the standard trypsin-coupled PPIase (peptidyl-prolyl isomerases) assay at a concentration of 100 uM.

As a reminder, the Inhibition is the drop in the measured response relative to a control, in per cent. The compound `CCOP(=O)(CNC(=O)[C@H](C)NC(C)=O)N1CCCC1C(=O)N[C@H](CNc1ccc([N+](=O)[O-])cc1)Cc1ccccc1` (stereo partly drawn) showed an Inhibition in experiment [1] of 30%. In addition, the NI entry in experiment [2] was “inactive”. `COC(=O)Cc1ccc(NC(=O)[C@H](Cc2ccccc2)NC(=O)C2CCCN2P(=O)(O)CNC(=O)[C@H](C)NC(C)=O)cc1` (stereo partly drawn) showed an Inhibition in experiment [3] of 0%.

For the origin of these results see ChEMBL document CHEMBL1135764, “Synthesis and evaluation of Glypsi(PO(2)R-N)Pro-containing pseudopeptides as novel inhibitors of the human cyclophilin hCyp-18” (J Med Chem, 2002).
